Assay results as given in patent US20240216272A1, “PHARMACEUTICAL PREPARATION” (KOWA COMPANY, LTD., priority 2014, published 2024).

What was measured:
Format in all cases: physicochemical
[1] = Test Example 5: photostability in plastic container containing an ultraviolet absorber; settings: for Analogs (%): aqueous composition 0.4 g/100 mL as free form, pH 6.0, polypropylene container containing ultraviolet absorber (transmittance 300 to 335 nm: 7.2%)
Method: Based on the results obtained in Test Examples 3 and 4, stabilization of an aqueous composition containing ripasudil was attempted by storing the aqueous composition in a container containing an ultraviolet absorber.
Specifically, an aqueous composition containing, per 100 mL, 0.4896 g of ripasudil monohydrochloride dihydrate (0.4 g, as the free form of ripasudil), 0.4 g of anhydrous sodium dihydrogen phosphate, 2.136 g of glycerin, 0.002 g of benzalkonium chloride, an appropriate amount of sodium hydroxide (pH 6.0), and sterile purified water (balance) was prepared. This aqueous composition was then stored in the below-described container for eye drops made of polypropylene, which contained an ultraviolet absorber. The aqueous composition was then irradiated with 4000 lux of light to give a cumulative radiation dose of 1,200,000 lux.hr, at 25° C., with a D65 fluorescent lamp as the light source, using a photostability tester (LT-120A: Nagano Science Corporation).
The amount of ripasudil analogs was evaluated for the sample before and after exposure to light, as in Test Example 1.
A container for eye drops made of polypropylene into which a benzotriazole-based ultraviolet absorber was mixed was used.

[2] = Test Example 1: photostability of ripasudil (powder), analogs by HPLC; settings: for Analogs (%): powder in glass petri dish, D65 fluorescent lamp 4000 lux, 25° C.
Method: (§1) In the following test examples, ripasudil monohydrochloride dihydrate can be produced in accordance with the method described in WO2006/057397, for example. Moreover, in the following test examples, measurement of ripasudil and its analogs using HPLC was performed using an ODS column as the column, 0.01 mol/L phosphate buffer and acetonitrile as the mobile phase, and an ultraviolet absorptiometer (wavelength: 280 nm) as the detector.
The stability of ripasudil with respect to light was evaluated by examining the presence or absence of degradation products formed by exposure to light.
Specifically, powdery ripasudil monohydrochloride dihydrate was spread in a glass petri dish to a thickness of 3 mm or less, and then irradiated with 4000 lux of light to give a cumulative radiation dose of 400,000, 800,000, or 1,200, 000 lux·hr, at 25° C., with a D65 fluorescent lamp as the light source, using a photostability tester (LT-120A: Nagano Science Corporation).
To examine the presence or absence of photodegradation products of ripasudil, the presence or absence of an increase in the amount of ripasudil analogs was evaluated for the sample before and after exposure to light. The amount of analogs was evaluated as the ratio (%) of the peak area of analogs relative to the peak area of ripasudil, using HPLC.

[3] = Test Example 7: Preservation Test No. 1, color difference (ΔYI) at 60° C.; settings: for ΔYI: aqueous composition of Table 7 (phosphate, pH 6.7), 60° C. for 3 months; for Evaluation (ΔYI): aqueous composition of Table 7, 60° C. for 3 months
Method: An aqueous composition of the formulation shown in Table 7 was prepared in accordance with a conventional method, and then placed in a container made of polyethylene (PE), polypropylene (PP), or polyvinyl chloride (PVC) to produce a pharmaceutical preparation. Each of the resulting pharmaceutical preparations was preserved at 60° C. for 3 months, and a color difference (ΔYI) before and after the preservation was measured using a color difference meter (spectrophotometer, CM-700d: Konica Minolta Sensing, Inc.). A ΔYI value of 5 or more was rated as “b”, and a ΔYI value of less than 5 was rated as “a”. [table]

[4] = Test Example 2: photostability of ripasudil in an aqueous composition; settings: D65 lamp; for Analogs (%): aqueous composition 0.4 g/100 mL as free form, pH 6.0, transparent polypropylene container, 25° C.
Method: as §1
The stability of ripasudil incorporated in an aqueous composition with respect to light was evaluated by examining the presence or absence of degradation products formed by exposure to light, as in Test Example 1.
Specifically, an aqueous composition containing, per 100 mL, 0.4896 g of ripasudil monohydrochloride dihydrate (0.4 g, as the free form of ripasudil), 0.4 g of anhydrous sodium dihydrogen phosphate, 2.136 g of glycerin, 0.002 g of benzalkonium chloride, an appropriate amount of sodium hydroxide (pH 6.0), and sterile purified water (balance) was prepared, and this aqueous composition was stored in a transparent container made of polypropylene. The aqueous composition was then irradiated with 4000 lux of light to give a cumulative radiation dose of 300,000, 600,000, or 1,200,000 lux·hr, at 25° C., with a D65 fluorescent lamp as the light source, using a photostability tester (LT-120A: Nagano Science Corporation).
To examine the presence or absence of photodegradation products of ripasudil, the presence or absence of an increase in the amount of ripasudil analogs was evaluated. The amount of analogs was evaluated as the area percentage (%) relative to the total peak area derived from ripasudil and its analogs, using HPLC.

[5] = Test Example 8: Preservation Test No. 2, color difference (ΔYI) at 60° C.; settings: for ΔYI: aqueous composition of Table 9 (boric acid, pH 6.7), 60° C. for 3 months; for Evaluation (ΔYI): aqueous composition of Table 9, 60° C. for 3 months
Method: An aqueous composition of the formulation shown in Table 9 was prepared in accordance with a conventional method, and then placed in a container made of polyethylene (PE) or polypropylene (PP) to produce a pharmaceutical preparation. Each of the resulting pharmaceutical preparations was preserved at 60° C. for 3 months, and a color difference (ΔYI) before and after the preservation was measured using a color difference meter (spectrophotometer, CM-700d: Konica Minolta Sensing, Inc.). A ΔYI value of 5 or more was rated as “b”, and a ΔYI value of less than 5 was rated as “a”. [table]

SMILES: C[C@H]1CNCCCN1S(=O)(=O)c1cccc2cncc(F)c12 [ripasudil, 4-fluoro-5-[[(2S)-2-methyl-1,4-diazepan-1-yl]sulfonyl]isoquinoline]
- Analogs (%) ([1]; D65 lamp, 25° C., 1,200,000 lux·hr): 0.55%
- Analogs (%) ([1]; before exposure to light): 0.11%
- photostability of ripasudil in the aqueous composition ([1]; container with average transmittance at 300 to 335 nm of 7.2%, in words): improved
- Analogs (%) ([2]; before exposure to light): 0.11%
- Analogs (%) ([2]; cumulative radiation dose 400,000 lux·hr): 0.14%
- Analogs (%) ([2]; cumulative radiation dose 800,000 lux·hr): 0.16%
- Analogs (%) ([2]; cumulative radiation dose 1,200,000 lux·hr): 0.16%
- formation of photodegradation products ([2]; powder, up to 1,200,000 lux·hr, in words): no formation of photodegradation products was observed
- ΔYI ([3]; container PE): 4.07
- ΔYI ([3]; container PP): 4.42
- ΔYI ([3]; container PVC): 7.45
- Evaluation (ΔYI) ([3]; container PE): a (a ΔYI value of less than 5 was rated as “a”)
- Evaluation (ΔYI) ([3]; container PP): a (a ΔYI value of less than 5 was rated as “a”)
- Evaluation (ΔYI) ([3]; container PVC): b (A ΔYI value of 5 or more was rated as “b”)
- Analogs (%) ([4]; 300,000 lux·hr): 1.29%
- Analogs (%) ([4]; 600,000 lux·hr): 1.95%
- Analogs (%) ([4]; 1,200,000 lux·hr): 3.67%
- Analogs (%) ([4]; before exposure to light): 0.17%
- formation of degradation products due to exposure to light ([4]; aqueous composition, transparent polypropylene container, in words): degradation products due to exposure to light are formed
- ΔYI ([5]; container PE): 4.15
- ΔYI ([5]; container PP): 4.64
- Evaluation (ΔYI) ([5]; container PE): a (a ΔYI value of less than 5 was rated as “a”)
- Evaluation (ΔYI) ([5]; container PP): a (a ΔYI value of less than 5 was rated as “a”)
